Species on record: Rattus norvegicus
Assay: Open TG-GATES - Regimen: Daily Repeat
Assay type: toxicity, organism-based, Sprague-Dawley
Parameters: regimen Daily Repeat, gender Male, age 6 weeks
Conditions: in vivo, po, 2 mg/kg, route gavage, dose level Low; for APTT / Bas / Eos / Fbg / Hb / Ht / Lym / MCH / MCHC / MCV / Mono / Neu / PT / Plat / RBC / Ret / WBC: tissue Blood; for KIDNEY_L / KIDNEY_R / KIDNEY_TOTAL: tissue Kidney; for LIVER: tissue Liver; for ALP / ALT / AST / BUN / CRE / Ca / Cl / DBIL / GLC / IP / K / LDH / Na / PL / RALB / TBIL / TC / TG / TP / gamma-GTP: tissue Plasma

O=P1(N(CCCl)CCCl)NCCCO1 (stereo not drawn) [CYCLOPHOSPHAMIDE ANHYDROUS]
TERMINAL_BW (72 h, time 3 day): 217.7 g
APTT (72 h, time 3 day): 20.8 s
Bas (72 h, time 3 day): 0%
Eos (72 h, time 3 day): 1%
Fbg (72 h, time 3 day): 299.8 mg/dL
Hb (72 h, time 3 day): 13.3 g/dL
Ht (72 h, time 3 day): 40.1%
Lym (72 h, time 3 day): 79.8%
MCH (72 h, time 3 day): 21.3 pg
MCHC (72 h, time 3 day): 33.1%
MCV (72 h, time 3 day): 64.3 fL
Mono (72 h, time 3 day): 3%
Neu (72 h, time 3 day): 15%
PT (72 h, time 3 day): 16.5 s
Plat (72 h, time 3 day): 126.5 x10_4/uL
RBC (72 h, time 3 day): 624.6 x10_4/ul
Ret (72 h, time 3 day): 6.5%
WBC (72 h, time 3 day): 74.5 x10_2/uL
KIDNEY_L (72 h, time 3 day): 1 g
KIDNEY_R (72 h, time 3 day): 1 g
KIDNEY_TOTAL (72 h, time 3 day): 1.9 g
LIVER (72 h, time 3 day): 10.2 g
ALP (72 h, time 3 day): 1778.2 IU/L
ALT (72 h, time 3 day): 40.2 IU/L
AST (72 h, time 3 day): 67 IU/L
BUN (72 h, time 3 day): 17.8 mg/dL
CRE (72 h, time 3 day): 0.2 mg/dL
Ca (72 h, time 3 day): 10.8 mg/dL
Cl (72 h, time 3 day): 106 meq/L
DBIL (72 h, time 3 day): 0 mg/dL
GLC (72 h, time 3 day): 187.4 mg/dL
IP (72 h, time 3 day): 7.1 mg/dL
K (72 h, time 3 day): 4.1 meq/L
LDH (72 h, time 3 day): 164.8 IU/L
Na (72 h, time 3 day): 141.8 meq/L
PL (72 h, time 3 day): 160.8 mg/dL
RALB (72 h, time 3 day): 3.1 g/dL
TBIL (72 h, time 3 day): 0.012 mg/dL
TC (72 h, time 3 day): 78.2 mg/dL
TG (72 h, time 3 day): 121.6 mg/dL
TP (72 h, time 3 day): 5.6 g/dL
gamma-GTP (72 h, time 3 day): 1.2 IU/L
TERMINAL_BW ([…], time 7 day): 254.7 g
TERMINAL_BW ([…], time 14 day): 305.2 g
TERMINAL_BW ([…], time 28 day): 367.9 g
APTT ([…], time 7 day): 22.6 s
Bas ([…], time 7 day): 0%
Eos ([…], time 7 day): 0.6%
Fbg ([…], time 7 day): 282.6 mg/dL
Hb ([…], time 7 day): 13.3 g/dL
Ht ([…], time 7 day): 40.1%
Lym ([…], time 7 day): 80.8%
MCH ([…], time 7 day): 21.7 pg
MCHC ([…], time 7 day): 33.2%
MCV ([…], time 7 day): 65.3 fL
Mono ([…], time 7 day): 2.4%
Neu ([…], time 7 day): 15.4%
PT ([…], time 7 day): 16.8 s
Plat ([…], time 7 day): 130 x10_4/uL
RBC ([…], time 7 day): 613.8 x10_4/ul
Ret ([…], time 7 day): 5.8%
WBC ([…], time 7 day): 88.7 x10_2/uL
APTT ([…], time 14 day): 22.2 s
Bas ([…], time 14 day): 0%
Eos ([…], time 14 day): 0.8%
Fbg ([…], time 14 day): 315 mg/dL
Hb ([…], time 14 day): 13.9 g/dL
Ht ([…], time 14 day): 41%
Lym ([…], time 14 day): 82.6%
MCH ([…], time 14 day): 20.2 pg
MCHC ([…], time 14 day): 33.9%
MCV ([…], time 14 day): 59.7 fL
Mono ([…], time 14 day): 2.4%
Neu ([…], time 14 day): 13.2%
PT ([…], time 14 day): 14.8 s
Plat ([…], time 14 day): 121.1 x10_4/uL
RBC ([…], time 14 day): 687.8 x10_4/ul
Ret ([…], time 14 day): 4.7%
WBC ([…], time 14 day): 88.9 x10_2/uL
APTT ([…], time 28 day): 23.3 s
Bas ([…], time 28 day): 0%
Eos ([…], time 28 day): 1%
Fbg ([…], time 28 day): 302.6 mg/dL
Hb ([…], time 28 day): 14.7 g/dL
Ht ([…], time 28 day): 42.7%
Lym ([…], time 28 day): 78.4%
MCH ([…], time 28 day): 19.4 pg
MCHC ([…], time 28 day): 34.5%
MCV ([…], time 28 day): 56.1 fL
Mono ([…], time 28 day): 2.2%
Neu ([…], time 28 day): 17.2%
PT ([…], time 28 day): 16.4 s
Plat ([…], time 28 day): 98.2 x10_4/uL
RBC ([…], time 28 day): 761.2 x10_4/ul
Ret ([…], time 28 day): 2.6%
WBC ([…], time 28 day): 84.8 x10_2/uL
KIDNEY_L ([…], time 7 day): 1.1 g
KIDNEY_R ([…], time 7 day): 1.1 g
KIDNEY_TOTAL ([…], time 7 day): 2.3 g
KIDNEY_L ([…], time 14 day): 1.2 g
KIDNEY_R ([…], time 14 day): 1.2 g
KIDNEY_TOTAL ([…], time 14 day): 2.5 g
KIDNEY_L ([…], time 28 day): 1.3 g
KIDNEY_R ([…], time 28 day): 1.3 g
KIDNEY_TOTAL ([…], time 28 day): 2.6 g
LIVER ([…], time 7 day): 12 g
LIVER ([…], time 14 day): 13.3 g
LIVER ([…], time 28 day): 14.1 g
ALP ([…], time 7 day): 1581 IU/L
ALT ([…], time 7 day): 41.4 IU/L
AST ([…], time 7 day): 69.4 IU/L
BUN ([…], time 7 day): 16.6 mg/dL
CRE ([…], time 7 day): 0.2 mg/dL
Ca ([…], time 7 day): 10.9 mg/dL
Cl ([…], time 7 day): 105 meq/L
DBIL ([…], time 7 day): 0 mg/dL
GLC ([…], time 7 day): 184.6 mg/dL
IP ([…], time 7 day): 7.7 mg/dL
K ([…], time 7 day): 4.2 meq/L
LDH ([…], time 7 day): 193.6 IU/L
Na ([…], time 7 day): 143.2 meq/L
PL ([…], time 7 day): 158.2 mg/dL
RALB ([…], time 7 day): 3 g/dL
TBIL ([…], time 7 day): 0.02 mg/dL
TC ([…], time 7 day): 76.8 mg/dL
TG ([…], time 7 day): 137.2 mg/dL
TP ([…], time 7 day): 5.5 g/dL
gamma-GTP ([…], time 7 day): 3.6 IU/L
ALP ([…], time 14 day): 1389 IU/L
ALT ([…], time 14 day): 34.4 IU/L
AST ([…], time 14 day): 60.6 IU/L
BUN ([…], time 14 day): 18.2 mg/dL
CRE ([…], time 14 day): 0.2 mg/dL
Ca ([…], time 14 day): 10.7 mg/dL
Cl ([…], time 14 day): 107.2 meq/L
DBIL ([…], time 14 day): 0.002 mg/dL
GLC ([…], time 14 day): 174.4 mg/dL
IP ([…], time 14 day): 6.5 mg/dL
K ([…], time 14 day): 4.2 meq/L
LDH ([…], time 14 day): 141.4 IU/L
Na ([…], time 14 day): 142.8 meq/L
PL ([…], time 14 day): 150.4 mg/dL
RALB ([…], time 14 day): 3.1 g/dL
TBIL ([…], time 14 day): 0.022 mg/dL
TC ([…], time 14 day): 71.4 mg/dL
TG ([…], time 14 day): 145.6 mg/dL
TP ([…], time 14 day): 5.7 g/dL
gamma-GTP ([…], time 14 day): 2 IU/L
ALP ([…], time 28 day): 1055.8 IU/L
ALT ([…], time 28 day): 34.8 IU/L
AST ([…], time 28 day): 61.4 IU/L
BUN ([…], time 28 day): 18.2 mg/dL
CRE ([…], time 28 day): 0.2 mg/dL
Ca ([…], time 28 day): 10.3 mg/dL
Cl ([…], time 28 day): 105.8 meq/L
DBIL ([…], time 28 day): 0 mg/dL
GLC ([…], time 28 day): 175.2 mg/dL
IP ([…], time 28 day): 6.6 mg/dL
K ([…], time 28 day): 4 meq/L
LDH ([…], time 28 day): 131.6 IU/L
Na ([…], time 28 day): 144.2 meq/L
PL ([…], time 28 day): 141.8 mg/dL
RALB ([…], time 28 day): 3.1 g/dL
TBIL ([…], time 28 day): 0.02 mg/dL
TC ([…], time 28 day): 72.6 mg/dL
TG ([…], time 28 day): 138.4 mg/dL
TP ([…], time 28 day): 6.2 g/dL
gamma-GTP ([…], time 28 day): 1 IU/L
